Patent JP2014001205A, “動物の寄生虫防除剤” (Nissan Chemical Corp, priority 2012, dated 2014)

Tests used:
[1] = system: cat flea (Ctenocephalides felis) adults [ネコノミ(Ctenocephalides felis)成虫]; assay: Efficacy test against cat flea (Test Example 1), glass container film contact; format: in vivo; details: 96 h, 10μg/cm2, 5 adults (mixed sex), 25℃, 4 days, duplicate, read-out: efficacy (number of insects with abnormal behaviour due to compound / number released × 100)
[2] = system: American dog tick (Dermacentor variabilis) first nymphs [American dog tick(Dermacentor variabilis)第1若虫]; assay: Efficacy test against American dog tick (Test Example 2), glass container film contact; format: in vivo; details: 96 h, 10μg/cm2, 5 first nymphs (mixed sex), 25℃, 4 days, duplicate, read-out: efficacy (number with abnormal behaviour due to compound / number released × 100)

`CCN(C(=O)C=CSC)c1cn(-c2cccnc2)nc1Cl` (single isomer, unassigned) [1−071] gave a pest or weed control at 10 µg/cm2 [1] of no less than 80% and a pest or weed control at 10 µg/cm2 [2] of no less than 80%.

In the case of `CSC[C@@H](C)C(=O)N(C)c1cn(-c2cccnc2)nc1Cl` [1−039(S)−(−)], the pest or weed control at 10 µg/cm2 [1] is reported as no less than 80% and the pest or weed control at 10 µg/cm2 [2] is reported as no less than 80%.

In the case of `CCN(C(=O)[C@H](C)CS(C)(=O)=O)c1cn(-c2cccnc2)nc1Cl` [1−050(S)−(+)], the pest or weed control at 10 µg/cm2 [1] is reported as no less than 80% and the pest or weed control at 10 µg/cm2 [2] is reported as no less than 80%.

For `CCN(C(=O)CSC)c1cn(-c2cccnc2)nc1Cl` [1−079], the pest or weed control at 10 µg/cm2 [1] was no less than 80% and the pest or weed control at 10 µg/cm2 [2] was no less than 80%.

Compound `CCN(C(=O)CS(C)(=O)=O)c1cn(-c2cccnc2)nc1Cl` [1−080] has a pest or weed control at 10 µg/cm2 [1] of no less than 80% and a pest or weed control at 10 µg/cm2 [2] of no less than 80%.

Work on `CCN(C(=O)COC(C)=O)c1cn(-c2cccnc2)nc1Cl` [1−082] yielded a pest or weed control at 10 µg/cm2 [1] of no less than 80% and a pest or weed control at 10 µg/cm2 [2] of no less than 80%.

Work on `CCCSC(C)C(=O)N(CC)c1cn(-c2cccnc2)nc1Cl` (centres unmarked) [1−246] yielded a pest or weed control at 10 µg/cm2 [1] of no less than 80% and a pest or weed control at 10 µg/cm2 [2] of no less than 80%.

`CCc1nn(-c2cccnc2)cc1NC(=O)OC(C)(C)C` [1−435] showed a pest or weed control at 10 µg/cm2 [1] of no less than 80% and a pest or weed control at 10 µg/cm2 [2] of no less than 80%.

Compound `CCCC(C)C(=O)N(CC)c1cn(-c2cccnc2)nc1Cl` (centres unmarked) [1−483] has a pest or weed control at 10 µg/cm2 [1] of no less than 80% and a pest or weed control at 10 µg/cm2 [2] of no less than 80%.

For `CCSC(C)C(=Nc1cn(-c2cccnc2)nc1Cl)SC` (centres unmarked) [3−006, メチル N−3−クロロ−1−(ピリジン−3−イル)−1H−ピラゾール−4−イル−2−(エチルチオ)プロパンイミドチオエート], the pest or weed control at 10 µg/cm2 [1] was no less than 80%.

With `Cc1c(NC(=O)OC(C)(C)C)cnn1-c1cccnc1` [5−001, tert−ブチル 5−メチル−1−(ピリジン−3−イル)−1H−ピラゾール−4−イルカーバメート] the pest or weed control at 10 µg/cm2 [1] was no less than 80%.
